Series [1] is described as follows: Adverse side effects, intolerances, incompatibilities in treated subjects and patients. Conditions: for adverse effects of earlier or basic treatment (patient history): Patient 7, rheumatoid arthritis/synovitis; for earlier treatment with TNF-α inhibitors (patient history): Patient 12, ankylosing spondylitis. It is filed as in vivo, human.
The test system of series [2] is inflammatory disease, immunological disease and/or autoimmunological disease. Kind of series: Treatment of patients: condition as stated by patient and physician (pain, fatigue, daily life, duration of effect, relapses). It is filed as in vivo, human. How it is done: All patients treated in the following Inventive Examples, Reference Examples and Comparative Examples were selected solely based on their diagnosis without performing a preselection in view of other parameters.
Annotation to the Tables 8A and B and 9 to 10: Patients were usually examined and treated in the same session. The success of the treatment or the effect thereof was then determined in the following session, usually one week later, and the next treatment performed as indicated in the tables.

In another series the test system is perfusion of the skin. The following applies: cited from earlier work.

As to `CC[C@@H]1CN(C(=O)NCC(F)(F)F)C[C@@H]1c1cnc2cnc3[nH]ccc3n12` [upadacitinib], the “adverse effects of earlier or basic treatment (patient history)” value (“adverse effects” for short) in series [1] was “severe adverse effects (tendency to fibrosis in the lungs and sinusitis)”.

As for Symponi®: TNF-α inhibitor, in series [1], the “earlier treatment with TNF-α inhibitors (patient history)” value (“earlier treatment with TNF-α inhibitors” below) is “accompanied by strong adverse side effects and hence, not successful”.

On to Enbrel®, for which the “earlier treatment with TNF-α inhibitors” value in series [1] is “accompanied by strong adverse side effects and hence, not successful”.

For tocilizumab: IL-6 inhibitor, the “effectiveness of earlier or basic treatment (patient history)” value in series [2] (Patient 7, rheumatoid arthritis/synovitis, before or beside the treatment of IE 7) is given as “only partially efficient”.

For the molecule `CCN(CCO)CCCC(C)Nc1ccnc2cc(Cl)ccc12.O=S(=O)(O)O` (stereo not shown) [Quensyl®, hydroxychloroquin sulphate], the “adverse effects” value in series [1] is listed as “can cause irreversible eye damage with long-term use”.

With `CN(Cc1cnc2nc(N)nc(N)c2n1)c1ccc(C(=O)N[C@@H](CCC(=O)O)C(=O)O)cc1` [MTX, methotrexate], in series [1], the “adverse effects” value was “severe adverse effects (tendency to fibrosis in the lungs and sinusitis)”.

On to Remicade®: TNF-α inhibitor, for which, in series [1], the “earlier treatment with TNF-α inhibitors” value was “accompanied by strong adverse side effects and hence, not successful”.

As to Simponi®: biologic, golimumab, the “effect of earlier treatment with biologics (patient's report)” value in series [2] (Patient 11, ankylosing spondylitis, within half a year the biologics lost their effect) is listed as “had little effect from the outset”.

With `COC(=O)c1cccnc1` [MN, methyl nicotinate], in the series with perfusion of the skin (50 μl of 20 mmol/l MN topical, healthy subjects, Laser Speckle Contrast Imager), the “perfusion response of the skin” value is reported as “reproducible perfusion response”. The “time course of the perfusion increase” value in the series on perfusion of the skin (topical application of MN, increase occurs a few minutes after application) is reported as “reaches a stable plateau phase after five minutes”.

Source of the values: patent US20240228570A9, “PLATFORM TECHNOLOGY FOR TREATMENT OF INFLAMMATORY, IMMUNOLOGICAL AND/OR AUTOIMMUNOLOGICAL DISEASES” (ellennbe GmbH, priority 2021, published 2024).
